Measured values: patent US10472352B2, “Rac inhibitors” (Geneyus LLC, priority 2017, dated 2019)

Columns and labels:
[1] = target: His-Rac1 / GST-PBD (PAK Binding Domain) (Homo sapiens, UniProt P63000); assay: Rac Activation AlphaScreen Assay (Rac1 AS); format: biochemical; settings: 500 nM GTPγS, 37° C., 1 hour; 'positive' = signal generated was higher than the positive control
Protocol: AlphaScreen® assays were performed in 96-well microplates in a final reaction volume of 60 μl. Recombinant His-Rac1, recombinant GST-PBD (PAK Binding Domain), donor and acceptor beads (PerkinElmer), and inhibitors were incubated in exchange buffer (20 mM Tris pH 7.5, 50 mM NaCl, 1 mM MgCl2, 1 mM EDTA, 500 nM GTPγS (guanosine 5′-[γ-thio]triphosphate)) at 37° C. Readings were performed on a Tecan M1000 pro microplate reader after 1 hour.

[2] = test system: MCF-7 human breast cancer cell line; assay: Cell Viability Assay (MCF7), PrestoBlue; format: cell-based; settings: MCF7, 72 h, MCF-7 cells, three days after drug treatment
Protocol: In order to determine a compound's effect on cell viability, PrestoBlue assays were performed as previously described by Kuhn et al. (2013) with modifications. MCF-7 human breast cancer and IGR-1 human melanoma cell lines were seeded into 96-well plates 24 hours prior to addition of drug. Cells were treated with 0 to 200 μM (11 concentrations) of compound solubilized in DMSO, adjusting the final concentration of DMSO to 1% in the well. Three days after drug treatment, cell viability was measured by adding PrestoBlue (Life Technologies Ltd.; cat. No. A13262) reagent directly to wells containing media/drug to reach a final concentration of 10%. PrestoBlue is a modified molecule of the common Alamar Blue probe used to determine viability based on the ability of a cell to metabolize a nonfluorescent compound (resazurin) to a florescent molecule (resorufin). Following a 1 hour incubation period, total well fluorescence was measured using the microplate reader M1000 pro (Tecan) with excitation 560-5 nm and emission 590-5 nm. […] The percentage of living cells was then computed by comparison with control wells. Kuhn, Jonas et al., Assay and Drug Development Technologies, March 2013, Label-Free Cytotoxicity Screening Assay by Digital Holographic Microscopy.

[3] = target: T1, Rac1 protein (Homo sapiens, UniProt P63000); assay: Fluorescence Polarization Assay (Rac1 FP); format: binding; settings: 125 nM his-tagged Rac1, 12.5 nM Bodipy-TR GTPγS, 30 minutes at 37° C.
T1 construct: purchased Cytoskeleton Inc. RC01
Protocol: Direct binding of Rac1 compound inhibitors to Rac1 protein was performed using fluorescence polarization (FP). Briefly, Rac1 inhibitors were initially dissolved in DMSO and then serial drug dilutions in exchange buffer (20 mM Tris pH 7.5, 50 mM NaCl, 1 mM MgCl, 1 mM EDTA) were prepared in a flat black 96-well half-area plate (Greiner). Recombinant his-tagged Rac1 protein (Cytoskeleton Inc. Cat. # RC01) was added to the inhibitors at a final concentration of 125 nM along with 12.5 nM Bodipy-TR GTPγS (Life Technologies Inc. Cat. # G35780) in exchange buffer and incubated for 30 minutes at 37° C. in exchange buffer. After 30 minutes of incubation. FP was measured on the M1000 Pro (Tecan) fluorescent plate reader with 590 nm±5 nm excitation and 625 nm±5 nm emission spectra settings.

[4] = test system: BT474 breast cancer cells; assay: BT474 Four (4) Day Cell Viability Assay; format: cell-based; settings: BT474, 4 days, 32661 0 μM, fulvestrant 0.0 nM
Protocol: BT474 breast cancer cells that are Estrogen Receptor Positive and HER2+ were grown in 5% cFBS. 5,000 cells were seeded into each well of a 96-well plate and treated with escalating doses of lapatinib, fulvestrant, and 32661.

| IC50 [2] [µM] | IC50 [3] [µM] | IC50 [1] [µM] | Structure (SMILES) | also measured |
| --- | --- | --- | --- | --- |
| 4.86 | 1.24 |  | FC(F)(F)c1ccc2c(SCCCCCOc3ccc(CN4CCOCC4)nc3)ccnc2c1 [Compound 0031778, 4-[(5-{[6-(morpholin-4-ylmethyl)pyridin-3-yl]oxy}pentyl)sulfanyl]-7-(trifluoromethyl)quinoline] | Rac1 AS IC50(uM) [1]: positive |
| 11.3 | 3.73 | 62 | FC(F)(F)c1ccc2c(SCCCCCCCn3cc(CN4CCOCC4)nn3)ccnc2c1 [Compound 0032371, 4-({7-[4-(morpholin-4-ylmethyl)-1H-1,2,3-triazol-1-yl]heptyl}sulfanyl)-7-(trifluoromethyl) quinoline] |  |
| 9.34 | 1.48 |  | COCCN(Cc1cn(CCCCCCSc2ccnc3cc(C(F)(F)F)ccc23)nn1)C(=O)OC(C)(C)C [Compound 0032621, tert-butyl N-(2-methoxyethyl)-N-{[1-(6-{[7-(trifluoromethyl)quinolin-4-yl]sulfanyl}hexyl)-1H-1,2,3-triazol-4-yl]methyl}carbamate] | Rac1 AS IC50(uM) [1]: positive |
| 19.1 | 2.33 | 16.6 | FC(F)(F)c1ccc2c(SCCCCCCn3cncc3CN3CCOCC3)ccnc2c1 [Compound 0032662, 4-({6-[5-(morpholin-4-ylmethyl)-1H-imidazol-1-yl]hexyl}sulfanyl)-7-(trifluoromethyl) quinoline] |  |
| 9.1 | 5.16 | 24.1 | FC(F)(F)c1ccc2c(SCc3cccc(Cn4cc(CN5CCOCC5)nn4)c3)ccnc2c1 [Compound 0032731, 4-[{(3-{[4-(morpholin-4-ylmethyl)-1H-1,2,3-triazol-1-yl]methyl}phenyl)methyl]sulfanyl)-7-(trifluoromethyl) quinoline] |  |
| 7.8 | 4.32 |  | Fc1ccc2c(SCCCCCCn3cc(CN4CCOCC4)nn3)ccnc2c1 [Compound 0032833, 7-fluoro-4-{(6-[4-(morpholin-4-ylmethyl)-1H-1,2,3-triazol-1-yl]hexyl}sulfanyl) quinoline] | Rac1 AS IC50(uM) [1]: positive |
| 6.3 | 1 | 3.2 | Cc1ccc(NCc2cn(CCCCCCSc3ccnc4cc(C(F)(F)F)ccc34)cn2)cc1 [Compound 0032880, 4-methyl-N-{[1-(6-{[7-(trifluoromethyl)quinolin-4-yl]sulfanyl)hexyl}-1H-imidazol-4-yl]methyl)aniline] |  |
| 6.8 | 0.249 | 6 | COc1ccc(NCc2cn(CCCCCCSc3ccnc4cc(C(F)(F)F)ccc34)cn2)cc1 [Compound 0032881, 4-methoxy-N-{[1-(6-{[7-(trifluoromethyl)quinolin-4-yl]sulfanyl}hexyl)-1H-imidazol-4-yl]methyl}aniline] |  |
| 7.8 | 2.04 | 4.4 | FC(F)(F)c1ccc2c(SCCCCCCn3cnc(CNc4ccccc4)c3)ccnc2c1 [Compound 0032886, N-{[1-(6-{[7-(trifluoromethyl)quinolin-4-yl]sulfanyl)hexyl}-1H-imidazol-4-yl]methyl} aniline] |  |
| 11.8 | 1.18 | 4.7 | CN(Cc1cn(CCCCCCSc2ccnc3cc(C(F)(F)F)ccc23)cn1)c1ccccc1 [Compound 0032887, N-methyl-N-{[1-(6-{[7-(trifluoromethyl)quinolin-4-yl]sulfanyl)hexyl}-1H-imidazol-4-yl]methyl}aniline] |  |
| 13.8 | 4.76 |  | O=C(NCc1cn(CCCCCCSc2ccnc3cc(C(F)(F)F)ccc23)nn1)C1CCCCC1 [Compound 0032896, N-{[1-(6-{[7-(trifluoromethyl)quinolin-4-yl]sulfanyl}hexyl)-1H-1,2,3-triazol-4-yl]methyl} cyclohexane-carboxamide] | Rac1 AS IC50(uM) [1]: positive |
| 11.6 | 2.79 | 35 | FC(F)(F)c1ccc2c(SCCCCCCn3ccc(CN4CCOCC4)n3)ccnc2c1 [Compound 0032897, 4-({6-[3-(morpholin-4-ylmethyl)-1H-pyrazol-1-yl]hexyl}sulfanyl)-7-(trifluoromethyl) quinoline] |  |
| 10.7 | 1.41 | 8.2 | COc1ccc(N2CCN(Cc3cn(CCCCCCSc4ccnc5cc(C(F)(F)F)ccc45)nn3)CC2)cc1 [Compound 0032956, 4-{[6-(4-{[4-(4-methoxyphenyl)piperazin-1-yl]methyl}-1H-1,2,3-triazol-1-yl)hexyl]sulfanyl}-7-(trifluoromethyl) quinoline] |  |
| 9 | 2.35 | 7.2 | Fc1ccc2c(SCCCCCCn3cnc(CNc4ccccc4)c3)ccnc2c1 [Compound 0033042, N-{(1-(6-[(7-fluoroquinolin-4-yl)sulfanyl]hexyl}-1H-imidazol-4-yl}methyl] aniline] |  |
| 7.8 | 100 | 9.6 | OC(c1ccccc1)c1cn(CCCCCCSc2ccnc3cc(C(F)(F)F)ccc23)cn1 (stereo not shown) [Compound 0033043, phenyl[1-(6-{[7-(trifluoromethyl)quinolin-4-yl]sulfanyl}hexyl)-1H-imidazol-4-yl]methanol] |  |
| 3.8 | 9.66 | 0.383 | FC(F)(F)c1ccc2c(SCCCCCCNc3ccc(N4CCNCC4)cc3)ccnc2c1 [Compound 0033102, 4-(piperazin-1-yl)-N-(6-{[7-(trifluoromethyl)quinolin-4-yl]sulfanyl}hexyl)aniline] |  |
| 10.8 | 0.71 | 2.3 | FC(F)(F)c1ccc2c(SCCCCCCNc3ccc(N4CCOCC4)cc3)ccnc2c1 [Compound 0033200, 4-(morpholin-4-yl)-N-(6-{[7-(trifluoromethyl)quinolin-4-yl]sulfanyl}hexyl)aniline] |  |
| 3.6 | 4.81 | 1.1 | FC(F)(F)c1ccc2c(SCCCCCCNc3cccc(N4CCNCC4)c3)ccnc2c1 [Compound 0033235, 3-piperazin-1-yl-N-[6-[[7-(trifluoromethyl)-4-quinolyl]sulfanyl]hexyl]aniline] |  |
| 3.8 | 9.67 | 0.98 | FC(F)(F)c1ccc2c(SCCCCCNc3ccc(N4CCNCC4)cc3)ccnc2c1 [Compound 0033240, 4-(piperazin-1-yl)-N-(5-{[7-(trifluoromethyl)quinolin-4-yl]sulfanyl}pentyl)aniline] |  |
| 7.6 | 2.32 | 1.1 | NC1CCN(c2ccc(NCCCCCCSc3ccnc4cc(C(F)(F)F)ccc34)cc2)CC1 [Compound 0033278, 1-{4-[(6-{[7-(trifluoromethyl)quinolin-4-yl]sulfanyl}hexyl)amino]phenyl} piperidin-4-amine] |  |
| 5.6 | 3.07 | 6.3 | O=C1CNCCN1c1ccc(NCCCCCCSc2ccnc3cc(C(F)(F)F)ccc23)cc1 [Compound 0033283, 1-{4-[(6-{[7-(trifluoromethyl)quinolin-4-yl]sulfanyl)hexyl}amino]phenyl} piperazin-2-one] |  |
|  |  |  | CS(=O)(=O)CCNCc1ccc(-c2ccc3ncnc(Nc4ccc(OCc5cccc(F)c5)c(Cl)c4)c3c2)o1 [Lapatinib, lapatinib, reference compound] | cellular viability ([4]; lapatinib 6.9 nM): 99%; cellular viability ([4]; lapatinib 20.6 nM): 96%; cellular viability ([4]; lapatinib 61.7 nM): 80%; cellular viability ([4]; lapatinib 185.2 nM): 75%; cellular viability ([4]; lapatinib 555.6 nM): 77%; cellular viability ([4]; lapatinib 1666.7 nM): 68%; cellular viability ([4]; lapatinib 3333.0 nM): 60% |
